What was measured:
Alpha2Beta4 = target: T1, Alpha2Beta4 (Rattus norvegicus, UniProt P12389+P12392); assay: PDSP primary binding Alpha2Beta4; conditions: primary binding, 10,000 nM; last figure of the line = mean of the 4 before it; read-out: Alpha2Beta4, PDSP raw data, mean
T1 construct: purchased NIMH Psychoactive Drug Screening Program (PDSP)
Description: (§1) To determine if any off-target receptor-binding effects are present, all the novel ligands were sent to the National Institute of Mental Health (NIMH), Psychoactive Drug Screening Program (PDSP). The ligands were screened over a panel of 47 receptors, ion channels, and transporters to determine any other possible interactions with […]. The hERG-binding was also determined. […] No binding of the test compounds to calcium channels was observed. […] It is necessary to screen the compounds for hERG-binding during the early process of drug discovery. The unintentional binding of many drugs to hERG can cause blockade of hERG K+ channels in the heart, which can cause many side effects including cardiac arrhythmias and sudden death. […] All of the α5 imidazodiazepines were tested for hERG-binding.
(§2) The NIMH PDSP assay protocol book [https://kidbdev.med.unc.edu/databases/PDSP%20Protocols%20II%202013-03-28.pdf accessed on 23 April 2023]. describes the protocols for primary and secondary radio-ligand binding assays. These assays were carried out in a final volume of 125 µL per well in the appropriate binding buffer.
(§3) The binding of a ligand to a receptor, ion channel, or transporter was determined in the […] of 10 µM of the appropriate reference compound. […] Plates were incubated in the dark for 90 min at rt, and the reactions were stopped by vacuum filtration onto 0.3% polyethyleneimine (PEI) soaked 96-well filter mats using a 96-well Filtermateharvester. This was followed by three washes with cold PBS buffer. Radioactivity was then counted on a Microbeta counter. Nonlinear regression was used to analyze the data with N = 6 replicates.

Kainate (Rat Brain) = assay: PDSP primary binding Kainate (Rat Brain); conditions: primary binding, 10,000 nM; last figure of the line = mean of the 4 before it
Description: as §1, §2, §3

Alpha1A = target: T2, Alpha1A (Homo sapiens, UniProt P35348); assay: PDSP primary binding Alpha1A; conditions: 1.5 h; primary binding, 10,000 nM; last figure of the line = mean of the 4 before it; read-out: Alpha1A, PDSP raw data, mean
T2 construct: purchased NIMH Psychoactive Drug Screening Program (PDSP)
T2 sequence (P35348 1-466): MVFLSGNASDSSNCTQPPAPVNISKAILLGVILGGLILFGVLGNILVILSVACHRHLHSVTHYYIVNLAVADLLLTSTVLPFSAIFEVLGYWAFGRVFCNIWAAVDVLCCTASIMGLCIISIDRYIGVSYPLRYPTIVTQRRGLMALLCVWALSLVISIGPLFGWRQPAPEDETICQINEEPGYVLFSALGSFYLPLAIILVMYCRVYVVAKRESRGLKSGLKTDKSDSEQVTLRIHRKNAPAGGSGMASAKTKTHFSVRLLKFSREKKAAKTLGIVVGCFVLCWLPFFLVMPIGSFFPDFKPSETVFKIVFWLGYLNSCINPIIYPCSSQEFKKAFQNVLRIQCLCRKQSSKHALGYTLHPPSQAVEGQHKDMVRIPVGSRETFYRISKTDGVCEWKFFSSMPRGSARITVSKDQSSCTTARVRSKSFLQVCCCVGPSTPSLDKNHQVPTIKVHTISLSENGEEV
Description: as §1, §2, §3

D3 = target: T3, D3 (Homo sapiens, UniProt P35462); assay: PDSP primary binding D3; conditions: 1.5 h; primary binding, 10,000 nM; last figure of the line = mean of the 4 before it; read-out: D3, PDSP raw data, mean
T3 construct: purchased NIMH Psychoactive Drug Screening Program (PDSP)
T3 sequence (P35462 whole entry): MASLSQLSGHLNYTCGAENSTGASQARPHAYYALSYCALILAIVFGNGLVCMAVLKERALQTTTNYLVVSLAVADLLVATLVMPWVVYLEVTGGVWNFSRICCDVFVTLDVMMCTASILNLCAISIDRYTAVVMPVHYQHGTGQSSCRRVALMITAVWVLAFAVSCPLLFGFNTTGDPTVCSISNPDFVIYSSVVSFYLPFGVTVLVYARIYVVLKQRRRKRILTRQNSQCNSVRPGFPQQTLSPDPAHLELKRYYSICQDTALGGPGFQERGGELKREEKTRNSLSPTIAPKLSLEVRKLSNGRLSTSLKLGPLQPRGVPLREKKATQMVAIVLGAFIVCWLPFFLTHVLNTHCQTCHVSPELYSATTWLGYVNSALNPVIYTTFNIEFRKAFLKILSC
Description: as §1, §2, §3

H1 = target: T4, H1 (Homo sapiens, UniProt P35367); assay: PDSP primary binding H1; conditions: primary binding, 10,000 nM; last figure of the line = mean of the 4 before it; read-out: H1, PDSP raw data, mean
T4 construct: purchased NIMH Psychoactive Drug Screening Program (PDSP)
T4 sequence (P35367 whole entry): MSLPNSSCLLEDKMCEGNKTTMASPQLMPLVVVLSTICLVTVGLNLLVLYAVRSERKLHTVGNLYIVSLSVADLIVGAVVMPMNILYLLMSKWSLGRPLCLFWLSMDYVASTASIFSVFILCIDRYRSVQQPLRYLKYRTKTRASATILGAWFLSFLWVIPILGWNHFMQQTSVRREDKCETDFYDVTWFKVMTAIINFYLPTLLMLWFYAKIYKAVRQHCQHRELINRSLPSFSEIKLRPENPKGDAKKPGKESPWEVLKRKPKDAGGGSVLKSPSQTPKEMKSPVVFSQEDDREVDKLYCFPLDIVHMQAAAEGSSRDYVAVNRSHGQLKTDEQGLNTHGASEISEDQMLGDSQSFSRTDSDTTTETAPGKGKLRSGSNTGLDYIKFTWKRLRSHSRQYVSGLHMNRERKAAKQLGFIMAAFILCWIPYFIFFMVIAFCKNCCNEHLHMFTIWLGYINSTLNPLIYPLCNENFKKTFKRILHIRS
Description: as §1, §2, §3

M5 = target: T5, M5 (Homo sapiens, UniProt P08912); assay: PDSP primary binding M5; conditions: primary binding, 10,000 nM; last figure of the line = mean of the 4 before it; read-out: M5, PDSP raw data, mean
T5 construct: purchased NIMH Psychoactive Drug Screening Program (PDSP)
T5 sequence (P08912 1-532): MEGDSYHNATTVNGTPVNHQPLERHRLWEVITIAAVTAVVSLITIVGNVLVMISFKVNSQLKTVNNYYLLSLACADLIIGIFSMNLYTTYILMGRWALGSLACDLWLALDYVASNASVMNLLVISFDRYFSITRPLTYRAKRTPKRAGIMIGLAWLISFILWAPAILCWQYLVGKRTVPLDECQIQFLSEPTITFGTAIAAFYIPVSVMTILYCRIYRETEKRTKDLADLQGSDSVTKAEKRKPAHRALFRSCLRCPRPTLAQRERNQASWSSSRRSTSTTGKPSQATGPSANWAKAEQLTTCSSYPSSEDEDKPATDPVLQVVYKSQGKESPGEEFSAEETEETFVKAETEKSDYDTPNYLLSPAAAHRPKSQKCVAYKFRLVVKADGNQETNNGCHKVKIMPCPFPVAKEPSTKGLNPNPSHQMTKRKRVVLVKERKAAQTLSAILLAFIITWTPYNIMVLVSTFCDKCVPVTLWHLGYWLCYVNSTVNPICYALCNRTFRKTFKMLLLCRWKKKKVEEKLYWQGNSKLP
Description: as §1, §2, §3

Sigma 2 = assay: PDSP primary binding Sigma 2; conditions: primary binding, 10,000 nM; last figure of the line = mean of the 4 before it
Description: as §1, §2, §3

Alpha2A = target: T6, Alpha2A (Homo sapiens, UniProt P08913); assay: PDSP primary binding Alpha2A; conditions: 1.5 h; primary binding, 10,000 nM; last figure of the line = mean of the 4 before it; read-out: Alpha2A, PDSP raw data, mean
T6 construct: purchased NIMH Psychoactive Drug Screening Program (PDSP)
T6 sequence (P08913 1-465): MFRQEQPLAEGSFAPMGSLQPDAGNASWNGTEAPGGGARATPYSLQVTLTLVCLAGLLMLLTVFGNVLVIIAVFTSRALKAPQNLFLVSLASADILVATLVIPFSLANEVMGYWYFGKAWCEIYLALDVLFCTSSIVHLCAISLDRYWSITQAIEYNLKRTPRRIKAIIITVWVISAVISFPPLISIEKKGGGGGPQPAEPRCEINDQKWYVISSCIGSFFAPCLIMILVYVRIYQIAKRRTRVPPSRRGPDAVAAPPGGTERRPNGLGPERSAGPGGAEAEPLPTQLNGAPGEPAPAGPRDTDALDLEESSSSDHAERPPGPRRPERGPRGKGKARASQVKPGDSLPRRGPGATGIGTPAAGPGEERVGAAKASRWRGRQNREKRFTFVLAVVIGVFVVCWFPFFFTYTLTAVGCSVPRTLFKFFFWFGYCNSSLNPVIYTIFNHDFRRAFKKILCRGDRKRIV
Description: as §1, §2, §3

V2 = target: T7, V2 (Homo sapiens, UniProt P30518); assay: PDSP primary binding V2; conditions: primary binding, 10,000 nM; last figure of the line = mean of the 4 before it; read-out: V2, PDSP raw data, mean
T7 construct: purchased NIMH Psychoactive Drug Screening Program (PDSP)
T7 sequence (P30518 whole entry): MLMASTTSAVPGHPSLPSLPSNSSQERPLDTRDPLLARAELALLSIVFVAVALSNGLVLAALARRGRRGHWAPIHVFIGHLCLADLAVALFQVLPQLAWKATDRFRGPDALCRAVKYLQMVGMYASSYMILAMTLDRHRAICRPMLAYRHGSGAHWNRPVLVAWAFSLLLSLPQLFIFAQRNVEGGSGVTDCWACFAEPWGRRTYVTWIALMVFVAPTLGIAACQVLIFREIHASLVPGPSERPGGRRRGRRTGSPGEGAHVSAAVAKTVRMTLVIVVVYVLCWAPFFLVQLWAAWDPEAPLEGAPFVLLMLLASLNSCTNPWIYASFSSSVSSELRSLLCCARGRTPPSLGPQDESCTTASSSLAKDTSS
Description: as §1, §2, §3

NR2B = assay: PDSP primary binding NR2B; conditions: primary binding, 10,000 nM; last figure of the line = mean of the 4 before it
Description: as §1, §2, §3

T1 sequence (P12389 28-511): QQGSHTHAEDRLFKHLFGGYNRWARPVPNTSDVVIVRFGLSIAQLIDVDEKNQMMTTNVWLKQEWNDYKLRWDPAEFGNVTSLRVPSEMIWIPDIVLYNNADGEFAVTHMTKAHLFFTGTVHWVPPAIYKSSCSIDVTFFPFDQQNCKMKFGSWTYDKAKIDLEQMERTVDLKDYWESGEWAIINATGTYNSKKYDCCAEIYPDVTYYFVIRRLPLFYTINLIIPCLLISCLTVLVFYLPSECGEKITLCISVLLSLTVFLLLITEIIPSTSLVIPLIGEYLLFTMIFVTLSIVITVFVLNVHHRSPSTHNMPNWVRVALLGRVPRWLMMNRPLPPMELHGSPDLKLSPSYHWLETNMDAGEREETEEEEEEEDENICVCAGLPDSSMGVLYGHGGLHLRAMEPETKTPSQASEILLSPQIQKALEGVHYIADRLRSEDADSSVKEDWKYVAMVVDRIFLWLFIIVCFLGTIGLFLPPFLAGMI
T1 sequence (P12392 21-495): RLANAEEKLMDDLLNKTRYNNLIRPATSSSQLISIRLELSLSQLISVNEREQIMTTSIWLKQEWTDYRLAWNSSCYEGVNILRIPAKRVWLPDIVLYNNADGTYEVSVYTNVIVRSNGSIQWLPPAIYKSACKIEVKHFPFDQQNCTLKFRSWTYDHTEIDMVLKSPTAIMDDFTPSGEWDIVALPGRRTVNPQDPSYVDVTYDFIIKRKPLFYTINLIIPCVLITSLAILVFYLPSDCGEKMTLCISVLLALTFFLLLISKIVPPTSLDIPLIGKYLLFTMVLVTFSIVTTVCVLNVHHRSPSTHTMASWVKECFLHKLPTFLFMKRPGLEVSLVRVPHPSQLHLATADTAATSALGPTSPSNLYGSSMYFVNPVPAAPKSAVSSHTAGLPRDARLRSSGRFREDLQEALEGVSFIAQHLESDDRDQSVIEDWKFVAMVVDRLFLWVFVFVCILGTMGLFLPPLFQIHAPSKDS

SMILES	inhibition at 10 µM (Alpha2Beta4) [%]	Kainate (Rat Brain), PDSP raw data, mean (Kainate (Rat Brain)) [%]	inhibition at 10 µM (Alpha1A) [%]	inhibition at 10 µM (D3) [%]	inhibition at 10 µM (H1) [%]	inhibition at 10 µM (M5) [%]	Sigma 2, PDSP raw data, mean (Sigma 2) [%]	inhibition at 10 µM (Alpha2A) [%]	inhibition at 10 µM (V2) [%]	NR2B, PDSP raw data, mean (NR2B) [%]
C[C@H]1N=C(c2ccccc2F)c2cc(Cl)ccc2-n2cnc(-c3nc(C4CC4)no3)c21 [Compound 38, (R)-5-(8-Chloro-6-(2′-fluorophenyl)-4-methyl-4H-benzo[f]imidazo[1,5-a][1,4]diazepin-3-yl)-3-cyclopropyl-1,2,4-oxadiazole]	0.54	36.46	1.65	-0.07	58.4	-5.18	80.86	15.6	5.48	31.49
CCc1noc(-c2ncn3c2CN=C(c2ccccc2F)c2cc(C4CC4)ccc2-3)n1 [Compound 44, 5-(8-Cyclopropyl-6-(2′-fluorophenyl)-4H-benzo[f]imidazo[1,5-a][1,4]diazepin-3-yl)-3-ethyl-1,2,4-oxadiazole]	8.23	42.42	21.4	16.1	16.3	-14.1	74.98	14.4	27.7	21.74
CCc1noc(-c2ncn3c2[C@@H](C)N=C(c2ccccc2F)c2cc(C4CC4)ccc2-3)n1 [Compound 46, (R)-5-(8-Cyclopropyl-6-(2′-fluorophenyl)-4-methyl-4H-benzo[f]imidazo[1,5-a][1,4]diazepin-3-yl)-3-ethyl-1,2,4-oxadiazole]	6.41	38.21	31.8	27.8	33.7	5.69	89.78	29.2	48.4	32.88

Source: publication PMC10303271, “Synthesis and Receptor Binding Studies of α5 GABAAR Selective Novel Imidazodiazepines Targeted for Psychiatric and Cognitive Disorders” (Molecules, 2023)
